Experimental data taken from PMC10215740 (Antibiotics, 2023).
Values joined by “and” are separate entries in the source; they are usually repeats but may differ in a detail not shown here. Equal values may be shown once.

What was measured:
[1] = Time with concentration above MIC targets (T>MIC, %T>MIC) in plasma and spinal tissues, microdialysis porcine model; assay type: in vivo, pigs (Danish Landrace breed)
From the text: (§1) Eight female pigs (Danish Landrace breed, weight 78–82 kg) were included. In general anaesthesia, microdialysis catheters were placed in the third cervical (C3) vertebral cancellous bone, the C3-C4 intervertebral disc, paravertebral muscle, and adjacent subcutaneous tissue. Plasma samples were obtained as a reference. Abiding by the recommendations of replacement, reduction, and refinement (the 3 Rs) when conducting animal studies, the data sampled in extrathecal spinal tissues in the present study are derived from animals where lower extremity data were reported previously. […] The dose and mode of administration used were in accordance with the clinical practice at our institution. Sampling was conducted for 8 h.
(§2) (Figure 3). The microdialysis catheters used were CMA 70 (membrane length 10 and 20 mm, molecular mass cut of 20 kDa; M Dialysis AB, Stockholm, Sweden). Through an anterolateral approach, the C2, C3, and C4 vertebrae were exposed. Using a 2 mm drill, a 25 mm drill hole was made into the C3 vertebra in which a 20 mm microdialysis catheter was placed. Afterward, with aid from a splitable microdialysis introducer (M Dialysis AB, Stockholm, Sweden), a 10 mm microdialysis catheter was positioned in the C3-C4 intervertebral disc, and a 20 mm microdialysis catheter was positioned in both the exposed paravertebral muscle and adjacent subcutaneous tissue. Correct positioning of the microdialysis catheters in the vertebra and the intervertebral disc was verified by fluoroscopy. The catheters were connected to precision pumps (CMA 107; M Dialysis AB, Stockholm, Sweden) and perfused with 0.9% NaCl solution at a flow rate of 1 μL/min.
(§3) After catheter placement, microdialysis sampling was initiated with a tissue-equilibration period of 20 min prior to the antibiotic intravenous administration. […] Microdialysates were collected at 30 min intervals for the first 4 h, and at 60 min intervals for the last 4 h, resulting in a total of 12 samples during an 8-h dosing interval. At the midpoint of each sampling interval, blood samples were collected from a central venous catheter for reference. The blood samples were stored at 5 °C for a maximum of 6 h before being centrifuged (room temperature, 3000 g, 10 min), and plasma aliquots were made. […] The recovery sample was later used for individual catheter calibration and calculation of absolute tissue concentrations. All collected samples were stored at –80 °C until the chemical analyses were performed; microdialysate analyses were performed at the Department of Forensic Medicine, Aarhus University, Denmark, and plasma aliquot analyses were performed at the Department of Clinical Biochemistry, Aarhus University Hospital, Aarhus, Denmark.
(§4) The free drug concentration of meropenem in plasma was quantified using ultra-high performance liquid chromatography (UHPLC).
(§5) The area under the concentration–time curves from zero to the last measured value (AUC0-8h) was calculated using the trapezoidal rule. The Cmax was calculated as the maximum concentration of all the recorded concentrations, and the Tmax was calculated as the time to achieve Cmax. As a measure of tissue penetration, the ratio of tissue AUC to plasma AUC (AUCtissue/AUCplasma) was calculated. A general comparison of the T>MIC and the pharmacokinetic parameters was conducted using repeated measurements of the analysis of variance (ANOVA), followed by pairwise comparisons made by linear regression. Because of a small sample size, it was necessary to conduct a correction for the degrees of freedom by the Kenward–Roger approximation method. Using the visual diagnosis of residuals, fitted values and estimates of random-effects model assumptions were tested. A p-value of less than 0.05 was considered significant.

[2] = Plasma and spinal tissue pharmacokinetics by microdialysis after single-dose co-administered i.v. meropenem and vancomycin; details: free drug, single i.v. 1000 mg meropenem + 1000 mg vancomycin co-administered, mean (95%CI)
From the text: as §1, §2, §3, §4, §5

[3] = intervertebral disc, microdialysis, pigs, one disc catheter malfunctioned
[4] = paravertebral muscle, microdialysis, pigs n = 8
[5] = subcutaneous tissue, microdialysis, pigs n = 8
[6] = vertebral cancellous bone, microdialysis, pigs n = 8

C[C@@H](O)[C@H]1C(=O)N2C(C(=O)O)=C(S[C@@H]3CN[C@H](C(=O)N(C)C)C3)[C@H](C)[C@H]12 [Meropenem, meropenem]
Mean T>MIC (min) ([1]; meropenem MIC 0.125 μg/mL (low), C3-C4 intervertebral disc, microdialysis, UHPLC-MS/MS, pigs, one disc catheter malfunctioned, single i.v. 1000 mg co-administered with vancomycin, mean): 366 (335; 396) min | Mean T>MIC (min) ([1]; meropenem MIC 0.125 μg/mL (low), C3 vertebral cancellous bone, microdialysis, UHPLC-MS/MS, pigs n = 8, single i.v. 1000 mg co-administered with vancomycin, mean): 244 (215; 272) min | Mean %T>MIC ([1]; meropenem MIC 0.125 μg/mL (low), intervertebral disc, microdialysis, percentage of dosing interval of 450 min, pigs, single i.v. 1000 mg): 81 (74; 88) % | Mean T>MIC (min) ([1]; meropenem MIC 0.125 μg/mL (low), paravertebral muscle, microdialysis, UHPLC-MS/MS, pigs n = 8, single i.v. 1000 mg co-administered with vancomycin, mean): 285 (256; 314) min | Mean %T>MIC ([1]; meropenem MIC 0.125 μg/mL (low), paravertebral muscle, microdialysis, percentage of dosing interval of 450 min, pigs n = 8, single i.v. 1000 mg): 63 (57; 70) % | Mean T>MIC ([1]; meropenem MIC 0.125 μg/mL (low), plasma, free drug, UHPLC, pigs n = 8, single i.v. 1000 mg over 10 min co-administered with vancomycin 1000 mg, linear interpolation, mean): 406 min | Mean %T>MIC ([1]; meropenem MIC 0.125 μg/mL (low), plasma, percentage of dosing interval of 450 min, pigs n = 8, single i.v. 1000 mg co-administered with vancomycin): 90% | Mean T>MIC (min) ([1]; meropenem MIC 0.125 μg/mL (low), subcutaneous tissue, microdialysis, UHPLC-MS/MS, pigs n = 8, single i.v. 1000 mg co-administered with vancomycin, mean): 334 (305; 363) min | Mean %T>MIC ([1]; meropenem MIC 0.125 μg/mL (low), subcutaneous tissue, microdialysis, percentage of dosing interval of 450 min, pigs n = 8, single i.v. 1000 mg): 74 (68; 81) % | Mean %T>MIC ([1]; meropenem MIC 0.125 μg/mL (low), vertebral cancellous bone, microdialysis, percentage of dosing interval of 450 min, pigs n = 8, single i.v. 1000 mg): 54 (48; 61) % | %T>MIC ([1]; meropenem low MIC target (0.125 µg/mL), all the investigated compartments, 8-h dosing interval, pigs, single i.v. 1000 mg): ≥ 54% | %T>MIC ([1]; pig, in vivo): 25–36% | Mean %T>MIC ([1]; pig, in vivo): 36 (33; 40) % | Mean T>MIC (min) ([1]; pig, in vivo): 163 (147; 180) min | %T>MIC ([1]; pig, in vivo, iv): ≤ 40% | Mean %T>MIC ([1]; pig, in vivo, iv): 40% and 26 (22; 30) % and 25 (22; 29) % and 35 (31; 39) % | Mean T>MIC ([1]; pig, in vivo, iv): 181 min | Mean T>MIC (min) ([1]; pig, in vivo, iv): 118 (101; 134) min and 114 (98; 131) min and 158 (141; 175) min | %T>MIC ([1]; pig, in vivo, iv, listed as meropenem): 25–90%

CN[C@H](CC(C)C)C(=O)N[C@H]1C(=O)N[C@@H](CC(N)=O)C(=O)N[C@H]2C(=O)N[C@H]3C(=O)N[C@H](C(=O)N[C@H](C(=O)O)c4cc(O)cc(O)c4-c4cc3ccc4O)[C@H](O)c3ccc(c(Cl)c3)Oc3cc2cc(c3O[C@@H]2O[C@H](CO)[C@@H](O)[C@H](O)[C@H]2O[C@H]2C[C@](C)(N)[C@H](O)[C@H](C)O2)Oc2ccc(cc2Cl)[C@H]1O [Vancomycin, vancomycin]
AUC0-8h [2, 3]: 877 (−325; 2079) min μg/mL | Cmax [2, 3]: 3 (−3; 10) μg/mL | AUC0-8h [2, 4]: 2538 (1379; 3698) min μg/mL | Cmax [2, 4]: 11 (5; 17) μg/mL | Cmax ([2]; plasma, pigs n = 8): 35 (29; 41) μg/mL | AUC0-8h [2, 5]: 3767 (2608; 4927) min μg/mL | Cmax [2, 5]: 17 (11; 23) μg/mL | AUC0-8h [2, 6]: 1698 (539; 2858) min μg/mL | Cmax [2, 6]: 6 (0.4; 12) μg/mL | Mean %T>MIC ([1]; vancomycin MIC 1 μg/mL (low), intervertebral disc, microdialysis, percentage of dosing interval of 450 min, pigs, single i.v. 1000 mg): 69% | Mean T>MIC ([1]; vancomycin MIC 1 μg/mL (low), intervertebral disc, microdialysis, pigs, one disc catheter malfunctioned, single i.v. 1000 mg co-administered with meropenem, mean): 311 min | Mean %T>MIC ([1]; vancomycin MIC 1 μg/mL (low), paravertebral muscle, microdialysis, percentage of dosing interval of 450 min, pigs n = 8, single i.v. 1000 mg): 96% | Mean T>MIC ([1]; vancomycin MIC 1 μg/mL (low), paravertebral muscle, microdialysis, pigs n = 8, single i.v. 1000 mg co-administered with meropenem, mean): 433 min | Mean T>MIC ([1]; vancomycin MIC 1 μg/mL (low), plasma, free drug, enzyme immunoassay, pigs n = 8, single i.v. 1000 mg over 100 min co-administered with meropenem 1000 mg, linear interpolation, mean): 449 min | Mean %T>MIC ([1]; vancomycin MIC 1 μg/mL (low), plasma, percentage of dosing interval of 450 min, pigs n = 8, single i.v. 1000 mg): 100% | Mean T>MIC ([1]; vancomycin MIC 1 μg/mL (low), subcutaneous tissue, microdialysis, UHPLC-MS/MS, pigs n = 8, single i.v. 1000 mg co-administered with meropenem, mean): 435 min | Mean %T>MIC ([1]; vancomycin MIC 1 μg/mL (low), subcutaneous tissue, microdialysis, percentage of dosing interval of 450 min, pigs n = 8, single i.v. 1000 mg): 97% | Mean %T>MIC ([1]; vancomycin MIC 1 μg/mL (low), vertebral cancellous bone, microdialysis, percentage of dosing interval of 450 min, pigs n = 8, single i.v. 1000 mg): 86% | Mean T>MIC ([1]; vancomycin MIC 1 μg/mL (low), vertebral cancellous bone, microdialysis, pigs n = 8, single i.v. 1000 mg co-administered with meropenem, mean): 388 min | Mean %T>MIC ([1]; vancomycin MIC 4 μg/mL (high), intervertebral disc, microdialysis, percentage of dosing interval of 450 min, pigs, single i.v. 1000 mg): 10% | Mean T>MIC ([1]; vancomycin MIC 4 μg/mL (high), intervertebral disc, microdialysis, pigs, one disc catheter malfunctioned, single i.v. 1000 mg co-administered with meropenem, mean): 45 min | Mean T>MIC ([1]; vancomycin MIC 4 μg/mL (high), paravertebral muscle, microdialysis, pigs n = 8, single i.v. 1000 mg co-administered with meropenem, mean): 306 min | Mean T>MIC ([1]; vancomycin MIC 4 μg/mL (high), plasma, free drug, pigs n = 8, single i.v. 1000 mg co-administered with meropenem, mean): 446 min | Mean %T>MIC ([1]; vancomycin MIC 4 μg/mL (high), plasma, percentage of dosing interval of 450 min, pigs n = 8, single i.v. 1000 mg): 99% | Mean %T>MIC ([1]; vancomycin MIC 4 μg/mL (high), subcutaneous tissue, microdialysis, percentage of dosing interval of 450 min, pigs n = 8, single i.v. 1000 mg): 81% | Mean T>MIC ([1]; vancomycin MIC 4 μg/mL (high), subcutaneous tissue, microdialysis, pigs n = 8, single i.v. 1000 mg co-administered with meropenem, mean): 365 min | Mean %T>MIC ([1]; vancomycin MIC 4 μg/mL (high), vertebral cancellous bone, microdialysis, percentage of dosing interval of 450 min, pigs n = 8, single i.v. 1000 mg): 47% | Mean T>MIC ([1]; vancomycin MIC 4 μg/mL (high), vertebral cancellous bone, microdialysis, pigs n = 8, single i.v. 1000 mg co-administered with meropenem, mean): 214 min | %T>MIC ([1]; vancomycin high MIC target (4 µg/mL), all solid tissue compartments, 8-h dosing interval, pigs, single i.v. 1000 mg): ≤ 81% | %T>MIC ([1]; vancomycin low MIC target (1 µg/mL), all the investigated compartments, 8-h dosing interval, pigs, single i.v. 1000 mg): ≥ 69% | %T>MIC ([1]; vancomycin, range across all targeted tissues and plasma and both MIC targets (1 and 4 µg/mL), pigs, single i.v. 1000 mg): 10–100%
